In PubChem BioAssay AID330 (DTP/NCI, 2004):
“And” between values parts separate entries of the source, which are not always exact repeats. Equal entries are not always repeated. Inconclusive results and toxic doses are left out. The calls were made as follows: active = survival T/C of 150% or more; inactive = T/C below 125% in these data.

System: P388 leukemia ip, CD2F1 mice, survival T/C
Assay: NCI In Vivo Anticancer Drug Screen. Data for tumor model P388 Leukemia (intraperitoneal) in CD2F1 (CDF1) mice
Details: endpoint: median survival time, higher = longer survival
How it was run: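 Mice carrying the transplanted tumor received test compound or vehicle. Survival was recorded in each group, and the value is the treated-group measurement divided by that of the vehicle-treated control group.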

[1] = dose: 25.0 mg/kg/injection, schedule: Q01DX009 (ip), vehicle: saline with Tween-80
[2] = dose: 50.0 mg/kg/injection, schedule: Q01DX009 (ip), vehicle: saline with Tween-80
[3] = dose: 100.0 mg/kg/injection, schedule: Q01DX009 (ip), vehicle: saline with Tween-80
[4] = dose: 200.0 mg/kg/injection, schedule: Q01DX009 (ip), vehicle: saline with Tween-80
[5] = dose: 6.25 mg/kg/injection, schedule: Q01DX005 (ip), vehicle: saline with Tween-80
[6] = dose: 100.0 mg/kg/injection, schedule: Q01DX005 (ip), vehicle: saline with Tween-80
[7] = dose: 200.0 mg/kg/injection, schedule: Q01DX005 (ip), vehicle: saline with Tween-80
[8] = dose: 12.5 mg/kg/injection, schedule: Q01DX005 (ip), vehicle: saline with Tween-80
[9] = dose: 25.0 mg/kg/injection, schedule: Q01DX005 (ip), vehicle: saline with Tween-80
[10] = dose: 50.0 mg/kg/injection, schedule: Q01DX005 (ip), vehicle: saline with Tween-80
[11] = dose: 50.0 mg/kg/injection, schedule: Q01DX005 (ip), vehicle: Klucel (hydroxypropylcellulose) (HPC)
[12] = dose: 100.0 mg/kg/injection, schedule: Q01DX005 (ip), vehicle: Klucel (hydroxypropylcellulose) (HPC)
[13] = dose: 200.0 mg/kg/injection, schedule: Q01DX005 (ip), vehicle: Klucel (hydroxypropylcellulose) (HPC)
[14] = dose: 50.0 mg/kg/injection, schedule: Q01DX009 (ip), vehicle: saline
[15] = dose: 100.0 mg/kg/injection, schedule: Q01DX009 (ip), vehicle: saline
[16] = dose: 60.0 mg/kg/injection, schedule: Q01DX005 (ip), vehicle: Klucel (hydroxypropylcellulose) (HPC)
[17] = dose: 120.0 mg/kg/injection, schedule: Q01DX005 (ip), vehicle: Klucel (hydroxypropylcellulose) (HPC)
[18] = dose: 240.0 mg/kg/injection, schedule: Q01DX005 (ip), vehicle: Klucel (hydroxypropylcellulose) (HPC)

Measured: T/C

CCOC(=O)Nc1cc2c(c(N)n1)N=C(c1ccccc1)CS2
inactive: dose: 75.0 mg/kg/injection, schedule: Q01DX005 (ip), vehicle: Klucel (hydroxypropylcellulose) (HPC) 100 % of control | dose: 150.0 mg/kg/injection, schedule: Q01DX005 (ip), vehicle: Klucel (hydroxypropylcellulose) (HPC) 95 % of control | dose: 300.0 mg/kg/injection, schedule: Q01DX005 (ip), vehicle: Klucel (hydroxypropylcellulose) (HPC) 97 % of control

CCCCCCC(=O)/C=C/c1cc(OC)ccc1OC
inactive: dose: 12.5 mg/kg/injection, schedule: Q01DX009 (ip), vehicle: saline with Tween-80 100 % of control | [1] 99 % of control | [2] 99 % of control | [3] 99 % of control and 96 % of control | [4] 97 % of control

COc1c2occc2c(N=Cc2ccc([N+](=O)[O-])cc2)c2ccc(=O)oc12
inactive: dose: 0.38 mg/kg/injection, schedule: Q01DX005 (ip), vehicle: saline with Tween-80 99 % of control | dose: 0.75 mg/kg/injection, schedule: Q01DX005 (ip), vehicle: saline with Tween-80 98 % of control | dose: 1.5 mg/kg/injection, schedule: Q01DX005 (ip), vehicle: saline with Tween-80 90 % of control | [5] 87 % of control | [6] 87 % of control | [7] 98 % of control

O=C1CN(c2ccccc2)CC(=O)N2Cc3ccccc3CN12
inactive: [5] 96 % of control | [8] 100 % of control | [9] 98 % of control

CCCC(Sc1ccccc1)c1cc(OC)ccc1NC(C)=O (stereo not given)
inactive: dose: 100.0 mg/kg/injection, schedule: Q01DX001 (ip), vehicle: saline with Tween-80 100 % of control | dose: 200.0 mg/kg/injection, schedule: Q01DX001 (ip), vehicle: saline with Tween-80 100 % of control | dose: 400.0 mg/kg/injection, schedule: Q01DX001 (ip), vehicle: saline with Tween-80 93 % of control

Clc1ccc(CN2COc3c(ccc4cccnc34)C2)cc1
inactive: dose: 50.0 mg/kg/injection, schedule: Q04DX003 (ip), vehicle: Klucel (hydroxypropylcellulose) (HPC) 101 % of control and 115 % of control | dose: 100.0 mg/kg/injection, schedule: Q04DX003 (ip), vehicle: Klucel (hydroxypropylcellulose) (HPC) 101 % of control and 105 % of control and 97 % of control | dose: 200.0 mg/kg/injection, schedule: Q04DX003 (ip), vehicle: Klucel (hydroxypropylcellulose) (HPC) 100 % of control and 103 % of control and 123 % of control | dose: 400.0 mg/kg/injection, schedule: Q04DX003 (ip), vehicle: Klucel (hydroxypropylcellulose) (HPC) 93 % of control

O=C(c1ccccc1)c1cnc2nc(-c3ccccc3)c(-c3ccccc3)nn12
inactive: [8] 89 % of control | [9] 90 % of control | [10] 93 % of control and 94 % of control | [6] 101 % of control | [7] 102 % of control

COc1ccc(/C(=C/c2ccc([N+](=O)[O-])cc2)C(=O)O)cc1
inactive: [11] 105 % of control | [12] 105 % of control | [13] 105 % of control

CS(=O)(=O)N1C2CC3CCCCC3CC21 (stereo not given)
inactive: dose: 25.0 mg/kg/injection, schedule: Q04DX002 (ip), vehicle: saline with Tween-80 99 % of control | dose: 50.0 mg/kg/injection, schedule: Q04DX002 (ip), vehicle: saline with Tween-80 99 % of control | dose: 100.0 mg/kg/injection, schedule: Q04DX002 (ip), vehicle: saline with Tween-80 105 % of control and 110 % of control | dose: 200.0 mg/kg/injection, schedule: Q04DX002 (ip), vehicle: saline with Tween-80 112 % of control | dose: 400.0 mg/kg/injection, schedule: Q04DX002 (ip), vehicle: saline with Tween-80 112 % of control

C=C(C)C(=O)NCC(=O)Nc1ccc(CC(NC(C)=O)C(=O)OC)cc1 (stereo not given)
inactive: [10] 102 % of control | [6] 100 % of control | [7] 89 % of control

CN1CCC(/C=C/c2ccccc2)CN1 (stereo not given) (tested in a mixture with another compound)
inactive: [14] 113 % of control | [15] 118 % of control

CCN=C(N)N=C(N)N
inactive: dose: 25.0 mg/kg/injection, schedule: Q01DX001 (ip), vehicle: saline 108 % of control | dose: 50.0 mg/kg/injection, schedule: Q01DX001 (ip), vehicle: saline 87 % of control | [14] 100 % of control | dose: 100.0 mg/kg/injection, schedule: Q01DX001 (ip), vehicle: saline 87 % of control | [15] 107 % of control | dose: 200.0 mg/kg/injection, schedule: Q01DX009 (ip), vehicle: saline 98 % of control

CCCCC(CC)(CCN)CCCC
inactive: dose: 5.0 mg/kg/injection, schedule: Q01DX009 (ip), vehicle: suspension in saline 107 % of control | dose: 10.0 mg/kg/injection, schedule: Q01DX009 (ip), vehicle: suspension in saline 103 % of control | dose: 20.0 mg/kg/injection, schedule: Q01DX009 (ip), vehicle: suspension in saline 90 % of control

CC1=CC(O)(c2nc3ccccc3s2)CC(C)(C)C1 (stereo not given)
inactive: [16] 93 % of control | [17] 94 % of control | [18] 92 % of control

O=C(N/N=C/c1ccccn1)c1ccccc1[O-].O=C(N/N=C/c1ccccn1)c1ccccc1[O-].[Mn+2]
inactive: [11] 103 % of control | [12] 101 % of control | [13] 107 % of control

COC(=O)C(N)C(F)c1ccccc1 (stereo not given)
inactive: [16] 107 % of control | [17] 100 % of control | [18] 98 % of control

COc1c2occc2c(NC(=O)C(F)(F)F)c2ccc(=O)oc12
inactive: dose: 100.0 mg/kg/injection, schedule: Q04DX002 (ip), vehicle: saline 100 % of control | dose: 200.0 mg/kg/injection, schedule: Q04DX002 (ip), vehicle: saline 101 % of control

CC(=O)NC(Cc1c[nH]c2ccccc12)C(C)=O (stereo not given)
inactive: [1] 89 % of control | [2] 91 % of control | [3] 106 % of control | [4] 97 % of control

COC(=O)CCP(CCC(=O)OC)c1ccccc1
inactive: dose: 60.0 mg/kg/injection, schedule: Q01DX005 (ip), vehicle: saline with Tween-80 99 % of control | dose: 120.0 mg/kg/injection, schedule: Q01DX005 (ip), vehicle: saline with Tween-80 99 % of control | dose: 240.0 mg/kg/injection, schedule: Q01DX005 (ip), vehicle: saline with Tween-80 103 % of control

O=NNc1nc2ccccc2s1
inactive: dose: 1.56 mg/kg/injection, schedule: Q01DX009 (ip), vehicle: water 97 % of control | dose: 3.12 mg/kg/injection, schedule: Q01DX009 (ip), vehicle: water 100 % of control and 105 % of control | dose: 6.25 mg/kg/injection, schedule: Q01DX009 (ip), vehicle: water 106 % of control and 109 % of control | dose: 12.5 mg/kg/injection, schedule: Q01DX009 (ip), vehicle: water 100 % of control and 92 % of control | dose: 25.0 mg/kg/injection, schedule: Q01DX009 (ip), vehicle: water 102 % of control and 106 % of control | dose: 50.0 mg/kg/injection, schedule: Q01DX009 (ip), vehicle: water 92 % of control
